Measurements taken from patent publication US20250302815A1, “PROTEIN TYROSINE PHOSPHATASE TARGETING LIGANDS” (CALICO LIFE SCIENCES LLC, priority 2021, published 2025).

Tests used:
[1] = molecular target: T1, PTPN2 (HiBIT-PTPN2 in 293T.109 cells) (Homo sapiens, UniProt P17706); assay: HiBiT Degradation 293T.109 PTPN2 (Nano-Glo HiBiT Lytic Assay); format: cell-based; settings: 24.0 hours
T1 construct: expressed in transfected cells; host or cells: 293T.109 (293T WT from ATCC)
T1 sequence (P17706 1-415): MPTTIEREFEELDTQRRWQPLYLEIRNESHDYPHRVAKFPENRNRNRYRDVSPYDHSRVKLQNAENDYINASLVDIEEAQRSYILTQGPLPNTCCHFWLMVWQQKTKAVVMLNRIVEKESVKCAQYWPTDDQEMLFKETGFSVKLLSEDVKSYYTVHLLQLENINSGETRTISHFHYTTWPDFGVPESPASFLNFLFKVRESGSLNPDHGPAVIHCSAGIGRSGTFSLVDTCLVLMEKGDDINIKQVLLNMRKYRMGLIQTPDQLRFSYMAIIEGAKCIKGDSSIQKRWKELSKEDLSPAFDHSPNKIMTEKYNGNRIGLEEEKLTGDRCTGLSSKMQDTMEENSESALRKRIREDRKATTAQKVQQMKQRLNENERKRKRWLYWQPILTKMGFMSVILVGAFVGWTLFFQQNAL
Summary of the method: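 293T.109 cells with ectopic N-terminal HiBiT-tagged PTPN2 (5000/well) exposed to compounds for 24 h at 37 °C, 5% CO2; 11-point half-log titration from 10 μM top, duplicates. Remaining HiBiT-PTPN2 read as luminescence with Nano-Glo HiBiT lytic reagent, normalised to untreated cells (0%) and reagent-free wells.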

PTPN2 (B16F10.4 cells) = molecular target: T2, PTPN2 (B16F10.4 cells) (Mus musculus, UniProt Q06180); assay: HiBiT Degradation B16F10.4 PTPN2; format: cell-based; settings: 24.0 hours
T2 construct: HiBiT; host or cells: B16F10.4
T2 sequence (Q06180 1-406): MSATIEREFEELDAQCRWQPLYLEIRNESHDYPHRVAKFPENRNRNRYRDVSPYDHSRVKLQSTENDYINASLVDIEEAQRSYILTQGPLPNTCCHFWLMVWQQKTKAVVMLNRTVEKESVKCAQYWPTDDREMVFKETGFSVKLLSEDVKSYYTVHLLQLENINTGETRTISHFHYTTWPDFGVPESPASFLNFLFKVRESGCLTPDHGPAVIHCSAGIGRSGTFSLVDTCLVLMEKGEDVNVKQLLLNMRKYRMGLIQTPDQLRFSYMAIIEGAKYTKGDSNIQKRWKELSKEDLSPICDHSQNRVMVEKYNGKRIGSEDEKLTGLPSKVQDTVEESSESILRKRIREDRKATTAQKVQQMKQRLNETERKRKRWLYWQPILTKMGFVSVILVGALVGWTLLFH

| DC50 [1] | DC50 (PTPN2 (B16F10.4 cells)) | SMILES |
| --- | --- | --- |
| 50 to 200 nM | 50 to 200 nM | Cn1c(=O)n(C2CCC(=O)NC2=O)c2ccc(C3CCN(C(=O)Nc4cc(CS(=O)(=O)N5CC[C@H](Nc6cccc(-c7sc(C(=O)O)c(OCC(=O)O)c7Cl)c6)CC5(C)C)ccc4F)CC3)cc21 (stereo partly drawn) [Example 119, 3-(carboxymethoxy)-4-chloro-5-[3-[[(4S)-1-[[3-[[4-[1-(2,6-dioxo-3-piperidyl)-3-methyl-2-oxo-benzimidazol-5-yl]piperidine-1-carbonyl]amino]-4-fluoro-phenyl]methylsulfonyl]-2,2-dimethyl-4-piperidyl]amino]phenyl]thiophene-2-carboxylic acid] |
| 50 to 200 nM | < 50 nM | Cn1c(=O)n(C2CCC(=O)NC2=O)c2ccc(C3CCN(C(=O)Nc4cc(CS(=O)(=O)N5CC[C@@H](Nc6cccc(-c7sc(C(=O)O)c(OCC(=O)O)c7Cl)c6)CC5(C)C)ccc4F)CC3)cc21 (stereo partly shown) [Example 120] |
| 200 to 1000 nM | 50 to 200 nM | Cn1c(=O)n(C2CCC(=O)NC2=O)c2ccc(C3CCN(C(=O)Nc4cccc(CS(=O)(=O)N5CCC(Nc6cc(-c7sc(C(=O)O)c(OCC(=O)O)c7Cl)ccc6F)CC5)c4)CC3)cc21 (stereo not shown) [Example 121, 3-(carboxymethoxy)-4-chloro-5-[3-[[1-[[3-[[4-[1-(2,6-dioxo-3-piperidyl)-3-methyl-2-oxo-benzimidazol-5-yl]piperidine-1-carbonyl]amino]phenyl]methylsulfonyl]-4-piperidyl]amino]-4-fluoro-phenyl]thiophene-2-carboxylic acid] |
| 50 to 200 nM | 50 to 200 nM | Cn1c(=O)n(C2CCC(=O)NC2=O)c2ccc(N3CCC(C(=O)Nc4cccc(CS(=O)(=O)N5CC[C@H](Nc6cccc(-c7sc(C(=O)O)c(OCC(=O)O)c7Cl)c6)CC5(C)C)c4)CC3)cc21 (stereo partly shown) [Example 122] |
| 50 to 200 nM | 50 to 200 nM | Cn1c(=O)n(C2CCC(=O)NC2=O)c2ccc(C3CCN(C(=O)Nc4cccc(CS(=O)(=O)N5CCC(Nc6cccc(-c7sc(C(=O)O)c(OCC(=O)O)c7Cl)c6F)CC5)c4)CC3)cc21 (stereo not shown) [Example 123, 3-(carboxymethoxy)-4-chloro-5-[3-[[1-[[3-[[4-[1-(2,6-dioxo-3-piperidyl)-3-methyl-2-oxo-benzimidazol-5-yl]piperidine-1-carbonyl]amino]phenyl]methylsulfonyl]-4-piperidyl]amino]-2-fluoro-phenyl]thiophene-2-carboxylic acid] |
| 200 to 1000 nM | ≥ 1000 nM | CC1(C)C[C@@H](Nc2cccc(-c3sc(C(=O)O)c(OCC(=O)O)c3Cl)c2)CCN1S(=O)(=O)Cc1cccc(NC(=O)N2CCC(n3c(=O)n(C4CCC(=O)NC4=O)c4ccccc43)CC2)c1 (stereo partly drawn) [Example 124, 3-(carboxymethoxy)-4-chloro-5-[3-[[(4S)-1-[[3-[[4-[3-(2,6-dioxo-3-piperidyl)-2-oxo-benzimidazol-1-yl]piperidine-1-carbonyl]amino]phenyl]methylsulfonyl]-2,2-dimethyl-4-piperidyl]amino]phenyl]thiophene-2-carboxylic acid] |
| 50 to 200 nM | < 50 nM | Cn1c(=O)n(C2CCC(=O)NC2=O)c2ccc(C3CCN(C(=O)Nc4cccc(CS(=O)(=O)N5CC[C@H](Nc6cccc(-c7sc(C(=O)O)c(OCC(=O)O)c7Cl)c6)CC5(C)C)c4F)CC3)cc21 (stereo partly drawn) [Example 125, 3-(carboxymethoxy)-4-chloro-5-[3-[[(4S)-1-[[3-[[4-[1-(2,6-dioxo-3-piperidyl)-3-methyl-2-oxo-benzimidazol-5-yl]piperidine-1-carbonyl]amino]-2-fluoro-phenyl]methylsulfonyl]-2,2-dimethyl-4-piperidyl]amino]phenyl]thiophene-2-carboxylic acid] |
| 50 to 200 nM | < 50 nM | CC1(C)C[C@@H](Nc2cccc(-c3sc(C(=O)O)c(OCC(=O)O)c3Cl)c2)CCN1S(=O)(=O)Cc1ccc(F)c(NC(=O)N2CCC(c3ccc4c5c(cccc35)C(=O)N4C3CCC(=O)NC3=O)CC2)c1 (stereo partly shown) [Example 126] |
| 200 to 1000 nM | < 50 nM | CC1(C)C[C@H](Nc2cccc(-c3sc(C(=O)O)c(OCC(=O)O)c3Cl)c2)CCN1S(=O)(=O)Cc1ccc(F)c(NC(=O)N2CCC(c3ccc4c5c(cccc35)C(=O)N4C3CCC(=O)NC3=O)CC2)c1 (stereo partly shown) [Example 127] |
| 50 to 200 nM | < 50 nM | CC1(C)C[C@@H](Nc2cccc(-c3sc(C(=O)O)c(OCC(=O)O)c3Cl)c2)CCN1S(=O)(=O)Cc1cccc(NC(=O)N2CCC(c3ccc4c5c(cccc35)C(=O)N4C3CCC(=O)NC3=O)CC2)c1F (stereo partly drawn) [Example 128, 3-(carboxymethoxy)-4-chloro-5-(3-(((4S)-1-((3-(4-(1-(2,6-dioxopiperidin-3-yl)-2-oxo-1,2-dihydrobenzo[cd]indol-6-yl)piperidine-1-carboxamido)-2-fluorobenzyl)sulfonyl)-2,2-dimethylpiperidin-4-yl)amino)phenyl)thiophene-2-carboxylic acid] |
| 200 to 1000 nM | < 50 nM | CC1(C)C[C@H](Nc2cccc(-c3sc(C(=O)O)c(OCC(=O)O)c3Cl)c2)CCN1S(=O)(=O)Cc1cccc(NC(=O)N2CCC(c3ccc4c5c(cccc35)C(=O)N4C3CCC(=O)NC3=O)CC2)c1F (stereo partly drawn) [Example 129, 3-(carboxymethoxy)-4-chloro-5-(3-(((4R)-1-((3-(4-(1-(2,6-dioxopiperidin-3-yl)-2-oxo-1,2-dihydrobenzo[cd]indol-6-yl)piperidine-1-carboxamido)-2-fluorobenzyl)sulfonyl)-2,2-dimethylpiperidin-4-yl)amino)phenyl)thiophene-2-carboxylic acid] |
| 200 to 1000 nM | 200 to 1000 nM | CC1(C)C[C@@H](Nc2cccc(-c3sc(C(=O)O)c(OCC(=O)O)c3Cl)c2)CCN1S(=O)(=O)Cc1cccc(NC(=O)CN2CCC(n3c(=O)n(C4CCC(=O)NC4=O)c4ccccc43)CC2)c1 (stereo partly drawn) [Example 130, 3-(carboxymethoxy)-4-chloro-5-[3-[[(4S)-1-[[3-[[2-[4-[3-(2,6-dioxo-3-piperidyl)-2-oxo-benzimidazol-1-yl]-1-piperidyl]acetyl]amino]phenyl]methylsulfonyl]-2,2-dimethyl-4-piperidyl]amino]phenyl]thiophene-2-carboxylic acid] |
| 200 to 1000 nM | 50 to 200 nM | Cn1c(=O)n(C2CCC(=O)NC2=O)c2ccc(C3CCN(C(=O)Nc4cccc(CS(=O)(=O)N5CC[C@@H](Nc6cccc(-c7sc(C(=O)O)c(OCC(=O)O)c7Cl)c6)CC5(C)C)c4F)CC3)cc21 (stereo partly shown) [Example 131] |
| 200 to 1000 nM | 50 to 200 nM | Cn1c(=O)n(C2CCC(=O)NC2=O)c2ccc(C3CCN(C(=O)Nc4cccc(CS(=O)(=O)N5CC[C@H](Nc6cc(-c7sc(C(=O)O)c(OCC(=O)O)c7Cl)ccc6F)CC5(C)C)c4)CC3)cc21 (stereo partly drawn) [Example 132, 3-(carboxymethoxy)-4-chloro-5-[3-[[(4S)-1-[[3-[[4-[1-(2,6-dioxo-3-piperidyl)-3-methyl-2-oxo-benzimidazol-5-yl]piperidine-1-carbonyl]amino]phenyl]methylsulfonyl]-2,2-dimethyl-4-piperidyl]amino]-4-fluoro-phenyl]thiophene-2-carboxylic acid] |
| 200 to 1000 nM | 50 to 200 nM | Cn1c(=O)n(C2CCC(=O)NC2=O)c2ccc(C3CCN(C(=O)Nc4cccc(CS(=O)(=O)N5CC[C@@H](Nc6cc(-c7sc(C(=O)O)c(OCC(=O)O)c7Cl)ccc6F)CC5(C)C)c4)CC3)cc21 (stereo partly shown) [Example 133] |
| < 50 nM | < 50 nM | Cn1c(=O)n(C2CCC(=O)NC2=O)c2ccc(C3CCN(C(=O)Nc4cccc(CS(=O)(=O)N5CC[C@H](Nc6cccc(-c7sc(C(=O)O)c(OCC(=O)O)c7Cl)c6F)CC5(C)C)c4)CC3)cc21 (stereo partly drawn) [Example 134, 3-(carboxymethoxy)-4-chloro-5-[3-[[(4S)-1-[[3-[[4-[1-(2,6-dioxo-3-piperidyl)-3-methyl-2-oxo-benzimidazol-S-yl]piperidine-1-carbonyl]amino]phenyl]methylsulfonyl]-2,2-dimethyl-4-piperidyl]amino]-2-fluoro-phenyl]thiophene-2-carboxylic acid] |
| 50 to 200 nM | < 50 nM | Cn1c(=O)n(C2CCC(=O)NC2=O)c2ccc(C3CCN(C(=O)Nc4cccc(CS(=O)(=O)N5CC[C@@H](Nc6cccc(-c7sc(C(=O)O)c(OCC(=O)O)c7Cl)c6F)CC5(C)C)c4)CC3)cc21 (stereo partly drawn) [Example 135, 3-(carboxymethoxy)-4-chloro-5-[3-[[(4R)-1-[[3-[[4-[1-(2,6-dioxo-3-piperidyl)-3-methyl-2-oxo-benzimidazol-5-yl]piperidine-1-carbonyl]amino]phenyl]methylsulfonyl]-2,2-dimethyl-4-piperidyl]amino]-2-fluoro-phenyl]thiophene-2-carboxylic acid] |
